experiment: gradient 5% acetonitrile 3 min, to 50% in 2 min, to 85% in 15 min, held 3 min, 100 µL/min; details: column: Zorbax Extend-C18 2.1 x 50 mm; eluents: water / acetonitrile, 0.1% formic acid
How it was run: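 Each retention time is based on an adduct peak selected computationally and verified by manual inspection. Measurements used HPLC–quadrupole time-of-flight mass spectrometry in positive and negative ionization mode on mixtures of ~100 pure standards. Chromatography ran on a Zorbax Extend-C18 column (2.1 × 50 mm, 1.8 μm) at 100 μL/min with water and acetonitrile, each containing 0.1% formic acid, and dead and dwell volumes of 40 μL and 900 μL.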

Which RP-LC retention time does the source give for COc1ccc(S(=O)(=O)NCc2ccc3c(c2)CCN3C(=O)c2ccccc2)cc1 here?
Its RP-LC retention time is 904 s.

For Cc1ccc(-n2c(=O)c3c(cc(C)n3C)n(CC(=O)Nc3ccc(Cl)cc3)c2=O)cc1, which RP-LC retention time is on record?
Its RP-LC retention time is 910 s.

With Cc1ccc(CNC(=O)c2ccc(CN3CCN(C(C)C)C(=O)C3=O)cc2)cc1C as the molecule, how does the RP-LC retention time read?
Its RP-LC retention time is 763 s.

Which RP-LC retention time does the source give for O=C(c1ccc(-c2csc(C3CC3)n2)cc1)N1CCCCCC1 here?
Its RP-LC retention time is 1070 s.

Which RP-LC retention time does the source give for CCC(=O)OCCN1C(=O)c2cccc3c(N4CCCCC4)ccc(c23)C1=O here?
The RP-LC retention time was 1170 s.

Which RP-LC retention time does the source give for CCC(C)NC(=O)N1CC(n2cc(C(=O)N3CCOCC3)nn2)C1 (stereo not given) here?
The RP-LC retention time was 608 s.

With COc1ccc(NC(=O)CSc2nccnc2Sc2ccc(C)cc2)cc1OC as the molecule, how does the RP-LC retention time read?
Its RP-LC retention time is 997 s.

For O=C(NCCc1cn2c(n1)SCC2)C(=O)Nc1ccc2c(c1)OCCO2, which RP-LC retention time is on record?
The RP-LC retention time was 556 s.

Which RP-LC retention time does the source give for Cc1ccc(-c2cc3c(=O)n(Cc4nc(-c5ccc(F)cc5)no4)ncn3n2)c(C)c1 here?
Its RP-LC retention time is 1220 s.

With Cc1cnc(C2CCC2)n1CC1CCN(C(=O)C2(c3ccccc3)CC2)CC1 as the molecule, how does the RP-LC retention time read?
Its RP-LC retention time is 592 s.

Which RP-LC retention time does the source give for O=S1(=O)CCC(Nc2ncnc3c2cnn3-c2ccc(Cl)c(Cl)c2)C1 (stereo not given) here?
The RP-LC retention time was 903 s.

For Cc1ccccc1CNC(=O)C1(C)CCN(S(=O)(=O)c2ccc(F)cc2)CC1, which RP-LC retention time is on record?
The RP-LC retention time was 925 s.

With O=C(Nc1ccccc1)N1CCCC1c1nncn1C1CCCC1 (stereo not given) as the molecule, how does the RP-LC retention time read?
Its RP-LC retention time is 622 s.

With CN(C)CCNC(=O)Cn1ncn2nc(-c3ccccc3)cc2c1=O as the molecule, how does the RP-LC retention time read?
The RP-LC retention time was 620 s.

Which RP-LC retention time does the source give for Cc1ccc(-c2nc(-c3ccnc(N4CCOCC4)c3)no2)cc1F here?
Its RP-LC retention time is 1100 s.

With CC(=O)Nc1ccc(CCc2nc3ccc(C(=O)NCC4CCCO4)cc3[nH]2)cc1 (stereo not given) as the molecule, how does the RP-LC retention time read?
Its RP-LC retention time is 562 s.

With Cc1c(C(=O)O)nnn1-c1ccc2c(c1)OCCO2 as the molecule, how does the RP-LC retention time read?
The RP-LC retention time was 638 s.

With CCCCN1CCN(C(=O)C2=NN(c3ccc(C)cc3)c3ncccc3S2(=O)=O)CC1 as the molecule, how does the RP-LC retention time read?
Its RP-LC retention time is 685 s.

For Cc1cc(C(=O)Nc2ccc(Cl)cn2)c2ccccc2n1, which RP-LC retention time is on record?
The RP-LC retention time was 694 s.

With O=S(=O)(Cc1ccccc1F)N1CCCC(c2nn[nH]n2)C1 (stereo not given) as the molecule, how does the RP-LC retention time read?
The RP-LC retention time was 706 s.

For Cn1c(CNC(=O)CSc2nnc3c4ccccc4nc(-c4ccco4)n23)nc2ccccc21, which RP-LC retention time is on record?
The RP-LC retention time was 632 s.

With Cc1cc(N2CCN(S(=O)(=O)c3ccc(Cl)cc3)CC2)nc(NC2CCCCC2)n1 as the molecule, how does the RP-LC retention time read?
Its RP-LC retention time is 884 s.

Which RP-LC retention time does the source give for C#CCOCC1CCCN(S(=O)(=O)c2cc(C)c(Cl)cc2Cl)C1 (stereo not given) here?
Its RP-LC retention time is 1130 s.

For CCc1noc(COC2CCCN(C(=O)Cn3ccnc3)C2)n1 (stereo not given), which RP-LC retention time is on record?
Its RP-LC retention time is 586 s.

With CN1CCO[C@@H](C(=O)NC2CC2)[C@@H]1c1ccccc1 as the molecule, how does the RP-LC retention time read?
The RP-LC retention time was 562 s.

With CCNc1nc(-c2ccc(C3CCCCC3)cc2)cs1 as the molecule, how does the RP-LC retention time read?
Its RP-LC retention time is 1060 s.

For CC(C)Cn1c(=O)c(N2CCN(C(=O)CCCc3ccccc3)CC2)nc2ccncc21, which RP-LC retention time is on record?
Its RP-LC retention time is 742 s.

With O=C(NCc1cccc(Cl)c1)C1CCCN(c2nc3ccsc3c(=O)n2Cc2ccccc2)C1 (stereo not given) as the molecule, how does the RP-LC retention time read?
Its RP-LC retention time is 988 s.

With CCn1cc(C(=O)Nc2cccc(C)c2)c2cccnc21 as the molecule, how does the RP-LC retention time read?
The RP-LC retention time was 857 s.

For O=S(=O)(c1cccc(Cl)c1)c1nnn2c1nc(N1CCCC1)c1sccc12, which RP-LC retention time is on record?
The RP-LC retention time was 925 s.

With Cc1ccc(N2C(=O)C3N=NN(Cc4nc(-c5ccccc5C)no4)C3C2=O)cc1Cl (stereo not given) as the molecule, how does the RP-LC retention time read?
The RP-LC retention time was 1140 s.

With COc1ccc(-c2ncc3c(n2)CCN(C(=O)Nc2ccc(F)c(Cl)c2)C3)cc1 as the molecule, how does the RP-LC retention time read?
The RP-LC retention time was 1020 s.

For Cc1cccc(NC(=O)Cn2cc(C(=O)N3CCCC3)c(=O)c3ccc(C)nc32)c1, which RP-LC retention time is on record?
The RP-LC retention time was 698 s.

For Cc1c(S(=O)(=O)NCc2cccs2)c(C)n(C)c1-c1nnc(C2CCC2)o1, which RP-LC retention time is on record?
The RP-LC retention time was 893 s.

For CCc1ccc(NC(=O)CSc2nccc(N3CCN(c4cc(C)ccc4C)CC3)n2)cc1, which RP-LC retention time is on record?
The RP-LC retention time was 995 s.

Which RP-LC retention time does the source give for Cc1oc2ccn(Cc3cccc(F)c3)c(=O)c2c1C(=O)N(C)Cc1ccccc1 here?
The RP-LC retention time was 898 s.

With Cc1ccc(Cn2nc3ccc(S(=O)(=O)N4CCOCC4)cn3c2=O)cc1 as the molecule, how does the RP-LC retention time read?
The RP-LC retention time was 977 s.

For O=C(Cn1nc(C2CC2)cc1C(=O)N1CCCC1)Nc1ccc(F)cc1Cl, which RP-LC retention time is on record?
The RP-LC retention time was 813 s.

With Cc1nc(-c2cn(C)c3ncccc23)sc1C(=O)Nc1ccc(F)cc1Cl as the molecule, how does the RP-LC retention time read?
Its RP-LC retention time is 1050 s.

With COCCCNC(=O)C1c2ccccc2C(=O)N1Cc1cccc(Br)c1 (stereo not given) as the molecule, how does the RP-LC retention time read?
The RP-LC retention time was 750 s.

Which RP-LC retention time does the source give for Cc1nc(-c2cnccn2)n(CC(=O)Nc2ccc(F)cc2)c(=O)c1C here?
Its RP-LC retention time is 709 s.

With CCC(=O)N(CC)c1nc(-c2ccc(Br)cc2)cs1 as the molecule, how does the RP-LC retention time read?
The RP-LC retention time was 1250 s.

For CCc1ccc2[nH]c3c(c(=O)c2c1)CN(CC(=O)Nc1cccc(C#N)c1)CC3, which RP-LC retention time is on record?
Its RP-LC retention time is 626 s.

Which RP-LC retention time does the source give for Nc1nc(N2CCN(C3CCCCC3)CC2)ncc1C(=O)Nc1ccccc1 here?
Its RP-LC retention time is 624 s.

For COc1ccc(CCNC(=O)C2CN(S(C)(=O)=O)CC23CCCCC3)cc1OC (stereo not given), which RP-LC retention time is on record?
The RP-LC retention time was 763 s.
